Measured values taken from patent US20260138961A1, “MODULATORS OF MITOCHONDRIAL DNA REPLICATION” (Pretzel Therapeutics, Inc., priority 2022, published 2026).

biological target: T1, POLγA:G848S (Homo sapiens, UniProt P54098, G848S); assay: DNA polymerization assay, POLγA:G848S mutant; format: biochemical; conditions: stimulation of polymerase activity, primed M13mp18 ssDNA, 37° C. 2 hours; read-out: G848S AC50
T1 sequence (P54098 1-1239 G848S): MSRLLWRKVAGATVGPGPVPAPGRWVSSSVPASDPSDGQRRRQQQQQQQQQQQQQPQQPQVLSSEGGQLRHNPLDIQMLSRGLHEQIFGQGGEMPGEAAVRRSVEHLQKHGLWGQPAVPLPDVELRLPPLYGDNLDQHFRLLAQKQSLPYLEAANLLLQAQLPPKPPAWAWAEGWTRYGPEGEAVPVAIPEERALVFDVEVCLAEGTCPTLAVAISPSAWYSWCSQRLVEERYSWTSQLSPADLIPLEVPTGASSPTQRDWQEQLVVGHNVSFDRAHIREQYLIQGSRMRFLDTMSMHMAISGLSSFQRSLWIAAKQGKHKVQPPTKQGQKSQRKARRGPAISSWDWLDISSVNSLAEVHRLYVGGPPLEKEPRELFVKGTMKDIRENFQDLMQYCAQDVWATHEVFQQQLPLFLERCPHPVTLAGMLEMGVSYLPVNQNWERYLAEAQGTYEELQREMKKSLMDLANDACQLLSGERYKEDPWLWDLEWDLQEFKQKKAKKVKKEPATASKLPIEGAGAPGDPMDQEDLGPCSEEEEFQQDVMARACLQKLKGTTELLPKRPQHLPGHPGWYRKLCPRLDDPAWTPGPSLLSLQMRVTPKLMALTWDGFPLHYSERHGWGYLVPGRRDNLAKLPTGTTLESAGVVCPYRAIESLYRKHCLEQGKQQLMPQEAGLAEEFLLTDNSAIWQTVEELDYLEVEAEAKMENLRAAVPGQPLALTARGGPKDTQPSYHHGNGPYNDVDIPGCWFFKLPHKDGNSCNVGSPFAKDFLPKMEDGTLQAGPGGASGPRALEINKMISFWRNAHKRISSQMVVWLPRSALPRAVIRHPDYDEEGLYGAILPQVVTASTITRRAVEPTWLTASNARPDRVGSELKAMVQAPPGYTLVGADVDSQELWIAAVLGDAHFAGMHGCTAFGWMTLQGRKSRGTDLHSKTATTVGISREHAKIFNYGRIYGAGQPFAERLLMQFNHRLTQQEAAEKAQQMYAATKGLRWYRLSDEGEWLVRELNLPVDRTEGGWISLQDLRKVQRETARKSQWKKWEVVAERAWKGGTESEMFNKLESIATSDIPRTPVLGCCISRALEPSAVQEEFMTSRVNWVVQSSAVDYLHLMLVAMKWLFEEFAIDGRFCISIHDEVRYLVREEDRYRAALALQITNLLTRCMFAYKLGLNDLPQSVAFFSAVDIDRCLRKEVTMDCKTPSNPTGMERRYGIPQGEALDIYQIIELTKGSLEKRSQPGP
T1 sequence (Q9UHN1 1-485 partner): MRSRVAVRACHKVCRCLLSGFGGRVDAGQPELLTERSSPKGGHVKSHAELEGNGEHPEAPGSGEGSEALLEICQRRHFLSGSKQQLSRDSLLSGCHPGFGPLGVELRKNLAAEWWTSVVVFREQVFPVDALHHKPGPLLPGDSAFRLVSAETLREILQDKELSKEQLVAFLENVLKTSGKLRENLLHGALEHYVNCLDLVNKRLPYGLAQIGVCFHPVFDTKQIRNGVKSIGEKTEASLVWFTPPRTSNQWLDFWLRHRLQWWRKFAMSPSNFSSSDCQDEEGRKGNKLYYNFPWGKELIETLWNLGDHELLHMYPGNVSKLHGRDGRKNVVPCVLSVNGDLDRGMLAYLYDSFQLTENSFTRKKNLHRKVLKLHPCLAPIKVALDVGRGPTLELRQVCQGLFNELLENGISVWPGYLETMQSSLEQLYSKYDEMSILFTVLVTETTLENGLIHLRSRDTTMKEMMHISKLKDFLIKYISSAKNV
Experimental: DNA Polymerization Assay to Monitor Effects on Human Wildtype POLγ and Four Disease-Causing Mutant Variants of Human POLγ.
The ability of small molecules to stimulate the polymerase activity of POLγ was analyzed in a quantitative fluorescence SYBR Green I assay with fluorescence intensity (FI) readout.
In the presence of dNTPs, wild type human POLγ and mutant derivatives thereof were incubated with single-stranded, circular M13mp18 ssDNA hybridized to a short DNA oligonucleotide that functions as a primer for initiation of DNA synthesis. POLγ and mutant derivatives thereof will extend the primer and use the M13mp18 molecule as a template to synthesize long stretches of double-stranded DNA. SYBR Green I, which is a double-stranded DNA-binding dye, was used to quantify formation of double-stranded DNA in the reaction. When bound to double-stranded DNA, SYBR Green I fluorescence increases by up to 100-fold.
The assay was performed in the 384-well plate format. Upon addition of compounds, changes in double-stranded DNA synthesis activity can be monitored by following effects on fluorescent intensity.
The reactions also contained the accessory POLγB subunit, and the human mitochondrial single-stranded DNA binding protein (mtSSB).
The DNA template mixture used in the assay contained 0.5 nM primed M13 mp18 ssDNA, 400 nM mtSSB, 0.1 mM Tris-HCl (pH 8.0), 0.1 mM dNTP, 10 mM MgCl2, 0.1 mg/mL BSA, 1 mM TCEP solution, and 0.02% Triton X-100. The DNA template mixture for the wild type protein contained either 100 μM dNTP, 1 μM dNTP, or 0.1 μM dNTP, designated in Table 2 as 100 μM, 1 μM, and 0.1 μM, respectfully.
Microplates with compounds (0.1 μL in each well) to be tested in the assay were prepared from 10 mM compound stocks in 100% DMSO, and equal amounts of DMSO without any compound were added to positive and negative control wells.
The protein mixture was dispensed (5 μL into each well) into compound plates and incubated at 37° C. for 15 minutes. After incubation, 5 μL of the DNA template mixture was dispensed into each well. The plates were then incubated at 37° C. for 2 hours.
During incubation, a combined stop buffer and detection reagent solution was prepared. The buffer contained 25 mM EDTA (pH 8.0), 0.02% Triton X-100, and SYBR Green I [Invitrogen] diluted 10,000× (for fluorescent readout). EDTA will stop the enzymatic reaction by chelating magnesium ions.

SMILES | AC50
Cc1cnc(-c2ccc(Cl)c(NS(=O)(=O)c3cc(C)c(Cl)cc3C)c2)s1 [Example 102, 4-chloro-N-(2-chloro-5-(5-methylthiazol-2-yl)phenyl)-2,5-dimethylbenzenesulfonamide] | 0.4 µM
Cc1cnc(-c2cc(NS(=O)(=O)c3cc(C)c(Cl)cc3C)ccc2C)s1 [Example 103, 4-chloro-2,5-dimethyl-N-(4-methyl-3-(5-methylthiazol-2-yl)phenyl)benzenesulfonamide] | 9 µM
Cc1cc(S(=O)(=O)N[C@@H]2CCCN(C(=O)[C@@H]3CCCN3C)C2)c(C)cc1Cl [Example 104, 4-chloro-2,5-dimethyl-N-((R)-1-(methyl-L-prolyl)piperidin-3-yl)benzenesulfonamide] | 47 µM
Cc1cc(S(=O)(=O)Nc2cccc(C(=O)N3CCCC4(CC4)C3)c2)c(C)cc1Cl [Example 105, N-(3-(5-azaspiro[2.5]octane-5-carbonyl)phenyl)-4-chloro-2,5-dimethylbenzenesulfonamide] | 9 µM
Cc1cc(S(=O)(=O)Nc2cccc(C(=O)N3CCCOC(C)(C)C3)c2)c(C)cc1Cl [Example 106, 4-chloro-N-(3-(2,2-dimethyl-1,4-oxazepane-4-carbonyl)phenyl)-2,5-dimethylbenzenesulfonamide] | > 100 µM
Cc1cc(S(=O)(=O)Nc2cccc(C(=O)N3CCc4cn[nH]c4C3)c2)c(C)cc1Cl [Example 107, 4-chloro-2,5-dimethyl-N-(3-(4,5,6,7-tetrahydro-1H-pyrazolo[3,4-c]pyridine-6-carbonyl)phenyl)benzenesulfonamide] | 7 µM
Cc1cc(S(=O)(=O)Nc2cccc(C(=O)N3C[C@H](C)[C@@H](N)C3)c2)c(C)cc1Cl [Example 108, N-(3-((3R,4S)-3-amino-4-methylpyrrolidine-1-carbonyl)phenyl)-4-chloro-2,5-dimethylbenzenesulfonamide] | > 100 µM
Cc1cc(S(=O)(=O)Nc2cccc(C(=O)N(C)c3ccccn3)c2)c(C)cc1Cl [Example 109, 3-((4-chloro-2,5-dimethylphenyl)sulfonamido)-N-methyl-N-(pyridin-2-yl)benzamide] | > 100 µM
Cc1cc(NS(=O)(=O)c2cc(C)c(Cl)cc2C)cc(-c2ncc(C)s2)c1 [Example 110, 4-chloro-2,5-dimethyl-N-(3-methyl-5-(5-methylthiazol-2-yl)phenyl)benzenesulfonamide] | > 100 µM
Cc1cnc(-c2cc(NS(=O)(=O)c3cc(C)c(Cl)cc3C)ccc2Cl)s1 [Example 111, 4-chloro-N-(4-chloro-3-(5-methylthiazol-2-yl)phenyl)-2,5-dimethylbenzenesulfonamide] | > 100 µM
Cc1cc(S(=O)(=O)Nc2cccc(C(=O)N(C(C)C)C3COC3)c2)c(C)cc1Cl [Example 112, 3-((4-chloro-2,5-dimethylphenyl)sulfonamido)-N-isopropyl-N-(oxetan-3-yl)benzamide] | 40 µM
Cc1cc(S(=O)(=O)Nc2cccc(C(=O)N(CC(N)=O)C3CCCC3)c2)c(C)cc1Cl [Example 113, N-(2-amino-2-oxoethyl)-3-((4-chloro-2,5-dimethylphenyl)sulfonamido)-N-cyclopentylbenzamide] | 11 µM
Cc1cc(S(=O)(=O)Nc2cccc(C(=O)N3CCc4ncnc(C)c4C3)c2)c(C)cc1Cl [Example 114, 4-chloro-2,5-dimethyl-N-(3-(4-methyl-5,6,7,8-tetrahydropyrido [4,3-d]pyrimidine-6-carbonyl)phenyl)benzenesulfonamide] | 50 µM
Cc1cc(S(=O)(=O)Nc2cccc(C(=O)N3C[C@@H](F)C[C@H](F)C3)c2)c(C)cc1Cl [Example 115, 4-chloro-N-(3-((3S,5S)-3,5-difluoropiperidine-1-carbonyl)phenyl)-2,5-dimethylbenzenesulfonamide] | > 100 µM
Cc1cc(Cl)ccc1S(=O)(=O)Nc1cccc(C(=O)N2CCC[C@H]2C)c1 [Example 116, (R)-4-chloro-2-methyl-N-(3-(2-methylpyrrolidine-1-carbonyl)phenyl)benzenesulfonamide] | 9 µM
Cc1cc(S(=O)(=O)Nc2cccc(C(=O)N3CCC[C@H]3C)c2)ccc1Cl [Example 117, (R)-4-chloro-3-methyl-N-(3-(2-methylpyrrolidine-1-carbonyl)phenyl)benzenesulfonamide] | > 100 µM
C[C@@H]1CCCN1C(=O)c1cccc(NS(=O)(=O)c2ccc(C(F)(F)F)cc2)c1 [Example 118, (R)-N-(3-(2-methylpyrrolidine-1-carbonyl)phenyl)-4-(trifluoromethyl)benzenesulfonamide] | > 100 µM
Cc1cc(S(=O)(=O)Nc2cccc(C(=O)N3CCCC3)c2)c(C)cc1Cl [Example 119, 4-chloro-2,5-dimethyl-N-(3-(pyrrolidine-1-carbonyl)phenyl) benzenesulfonamide] | 2 µM
O=S(=O)(Nc1csc(-c2ccccc2)n1)c1ccc(Cl)cc1 [Example 120, 4-chloro-N-(2-phenylthiazol-4-yl)benzenesulfonamide] | > 100 µM
O=S(=O)(Nc1csc(-c2ccccc2)n1)c1cccnc1 [Example 121, N-(2-phenylthiazol-4-yl)pyridine-3-sulfonamide] | > 100 µM
O=S(=O)(Nc1csc(-c2ccccc2)n1)c1ccc(F)c(F)c1 [Example 122, 3,4-difluoro-N-(2-phenylthiazol-4-yl)benzenesulfonamide] | > 100 µM
Cc1ccc(S(=O)(=O)Nc2csc(-c3ccccc3)n2)c(C)c1 [Example 123, 2,4-dimethyl-N-(2-phenylthiazol-4-yl)benzenesulfonamide] | 2 µM
Cc1cc(F)ccc1S(=O)(=O)Nc1csc(-c2ccccc2)n1 [Example 124, 4-fluoro-2-methyl-N-(2-phenylthiazol-4-yl)benzenesulfonamide] | 2 µM
O=S(=O)(Nc1csc(-c2ccccc2)n1)c1ccccc1Cl [Example 125, 2-chloro-N-(2-phenylthiazol-4-yl)benzenesulfonamide] | 7 µM
